Data: patent US7129208B2, “Synthetic ion channels” (Washington University, priority 2002, dated 2006)
“And” between values parts separate entries of the source, which are not always exact repeats. Identical values can stand only once. The star is where a group is joined. (C18H37)2NCOCH2OCH2CO = CCCCCCCCCCCCCCCCCCN(CCCCCCCCCCCCCCCCCC)C(=O)COCC(=O)*; OBn = c1ccc(CO*)cc1

Legend:
[1] = Chloride release from liposomes (chloride-specific electrode); type: biochemical; details: for chloride release / efflux from liposomes: unilamellar liposomes 182±12 nm
Experimental: Liposomes were prepared by reverse-phase evaporation^26 as previously reported.^27 Cl^− release was determined with a resin, chloride-specific electrode. Ion transport, mediated by (C18H37)2NCOCH2OCH2CO-GGGPGGG-OCH2Ph (SEQ ID NO.: 2), was studied in unilamellar liposomes of 182±12 nm average dimension. […] Neither the anchor-GGGLGGG (SEQ ID NO.: 3) compound nor the anchor-GGG compound retains the kink believed to be present in (C18H37)2NCOCH2OCH2CO-GGGPGGG-OCH2Ph (SEQ ID NO.: 2) owing to the presence of the proline residue.
Substituting an impermeant external ion (SO4^=) for a permeant one (NO3^−) will generate a membrane potential that inhibits Cl^− release. Thus, replacing nitrate by sulfate in the aqueous medium produced a 5-fold reduction in chloride efflux (data not shown).

[2] = Voltage clamp in planar lipid bilayers; type: biochemical; details: for maximum conductance (chloride diffusion pathway): linear current-voltage relationship, 63 μM in b201
Experimental: The chloride selectivity of (C18H37)2NCOCH2OCH2CO-GGGPGGG-OCH2Ph (SEQ ID NO.: 2) was assessed by voltage clamp methods in planar phospholipid bilayers. Addition of (C18H37)2NCOCH2OCH2CO-GGGPGGG-OCH2Ph (SEQ ID NO.: 2) to planar bilayer lipids produced large currents within seconds in a 450:150 mM KCl ion gradient. The sign and the magnitude of this current indicated Cl^− transport by a nanoSiemen-sized channel. A linear current-voltage relationship gave a maximum conductance of 1.3±0.1 nS. The reversal potential, Erev, was 28±0.45 mV, corresponding to the calculated chloride Nernst potential, ECl, of 28.2 mV. This confirms the >10:1 Cl^−/K^+ selectivity observed in liposomes. The ion selectivity and conductivity indicate that (C18H37)2NCOCH2OCH2CO-GGGPGGG-OCH2Ph (SEQ ID NO.: 2) forms a large, stable, anion selective aqueous pore in bilayer membranes.
Planar lipid bilayers were formed by standard methods. (C18H37)2NCOCH2OCH2CO-GGGPGGG-OCH2Ph (SEQ ID NO.: 2) was applied to the cis chamber at 60 μM (micromolar) with a 450 mM/150 mM KCl gradient present across the membrane. Seconds later Cl^− currents appeared and voltage was varied from +20 to −2 mV. Fractional open time was computed using the computer programs Fetchan and pStat (Axon Instruments, CA).
The chloride selectivity of (C18H37)2NCOCH2OCH2CO-GGG-P-GGG-OCH2Ph (SEQ ID NO.: 2) was assessed by voltage clamp methods in planar lipid bilayers prepared as described in P. Schlesinger, et al., Proc. Natl. Acad. Sci. 94, 11357 (1997). The addition of 63 μM (C18H37)2NCOCH2OCH2CO-GGG-P-GGG-OCH2Ph (SEQ ID NO.: 2) produced large currents within seconds in a 450:150 mM KCl ion gradient (FIG. 8a). […] The reversal potential, Erev, was 28±0.45 mV, corresponding to the calculated chloride Nernst potential, ECl, of 28.2 mV (FIG. 8c). This confirms the >10:1 Cl^−/K^+ selectivity observed in liposomes. The ion selectivity and conductivity indicate that (C18H37)2NCOCH2OCH2CO-GGG-P-GGG-OCH2Ph (SEQ ID NO.: 2) forms a large, stable, anion selective aqueous pore in bilayer membranes.

[3] = Carboxyfluorescein fluorescence dequenching: pore activation and size, dextran block; type: biochemical
Experimental: Fluorescence dequenching was used to study pore activation and size as previously described in Saito et al. CF dequenching reflects the kinetics of pore activation and dequenching is accurately fit by this equation. Ft=F0+A1(1−e^−(t/τ))+mt
This exponential model requires that the concentration dependence of quenching will reflect the molecularity of pore activation (FIG. 9a, 9b). […] We infer therefore that at ˜100 μM, the active pore involves two molecules of (C18H37)2NCOCH2OCH2CO-GGG-P-GGG-OCH2Ph (SEQ ID NO.: 2). […] Size-specific dextran block (using ˜6–26 Å diameter molecules) confirmed an apparent pore diameter of 6.6 A (FIG. 9d, 9e) (M. Saito, S. J. Korsmeyer, P. H. Schlesinger, Nature Cell Biology, 553 (2000); S. Rex, G. Schwarz, Biochemistry37, 2336 (1998)).

[4] = Pore size from molecular models and bilayer conductance data
RAW 264.7 cells [5] = experiment: Intracellular calcium, Fura-2 fluorescence ratio method; details: 46 μM or 92 μM applied at time zero
Experimental: We determined cell volume from 0.5 micron image stacks collected at 30 second intervals and calculated the time-dependent volume changes that are shown in FIG. 7B. […] RAW 264.7 cells (American Type Culture Collection, Manassas Va.) were plated into microscope chambers in Dulbeccos Minimal Essential Media with antibiotics and 10% fetal calf serum and allowed to recover over night at 5% CO2. Prior to experiment they were transferred to Hanks buffered saline (10 mM HEPES, pH 7.0) and placed into the thermostated microscope stage (37° C.) and permitted to equilibrate for 10 min. Cell volume was monitored and corrected for changes in cell geometry by optical sections at 0.5 micron steps from the glass surface to the top of the cell (typically 5–7 sections). Images were collected using a Zeiss 100 M Axovert microscope, a 12-bit Sensi-Cam, and analyzed using Slidebook 3.0 (Intelligent Imaging Innovations, Inc. Cambridge, Mass.). Cell volume was calculated by summing the intracellular surface for each image in the stack of sections. […] In FIG. 7B the cellular volume changes were followed by comparing sequential series of z-stacks from optical sections and normalized to total cell volume at the beginning of the experiment (t=0). […] Intracellular calcium was followed using Fura-2 fluorescence ratio method. […]

RAW 264.7 cells [6] = experiment: Cell volume regulation in a monocytic cell line (optical sections)
Experimental: We determined cell volume from 0.5 micron image stacks collected at 30 second intervals and calculated the time-dependent volume changes that are shown in FIG. 7B. […] RAW 264.7 cells (American Type Culture Collection, Manassas Va.) were plated into microscope chambers in Dulbeccos Minimal Essential Media with antibiotics and 10% fetal calf serum and allowed to recover over night at 5% CO2. Prior to experiment they were transferred to Hanks buffered saline (10 mM HEPES, pH 7.0) and placed into the thermostated microscope stage (37° C.) and permitted to equilibrate for 10 min. Cell volume was monitored and corrected for changes in cell geometry by optical sections at 0.5 micron steps from the glass surface to the top of the cell (typically 5–7 sections). Images were collected using a Zeiss 100 M Axovert microscope, a 12-bit Sensi-Cam, and analyzed using Slidebook 3.0 (Intelligent Imaging Innovations, Inc. Cambridge, Mass.). Cell volume was calculated by summing the intracellular surface for each image in the stack of sections. […] In FIG. 7B the cellular volume changes were followed by comparing sequential series of z-stacks from optical sections and normalized to total cell volume at the beginning of the experiment (t=0). […] Intracellular calcium was followed using Fura-2 fluorescence ratio method. […] Depolarization dependent increase in cytosolic calcium was initiated by the switch to 100 mM KCl at 200 seconds (open triangle).

CC(C)[C@@H]1NC(=O)[C@H](C)OC(=O)[C@@H](C(C)C)NC(=O)[C@@H](C(C)C)OC(=O)[C@H](C(C)C)NC(=O)[C@H](C)OC(=O)[C@@H](C(C)C)NC(=O)[C@@H](C(C)C)OC(=O)[C@H](C(C)C)NC(=O)[C@H](C)OC(=O)[C@@H](C(C)C)NC(=O)[C@@H](C(C)C)OC1=O [valinomycin, reference compound]
effect on membrane potential inhibition of net chloride movement ([1]; added to liposomes with the channel compound in sulfate medium): permitted the remaining chloride to exit the liposomes

(C18H37)2NCOCH2OCH2CO-Gly-Gly-Gly-Pro-Gly-Gly-Gly-OCH2Ph ({(C18H37)2NCOCH2OCH2CO}-GGGPGGG-OBn; SMILES CCCCCCCCCCCCCCCCCCN(CCCCCCCCCCCCCCCCCC)C(=O)COCC(=O)NCC(=O)NCC(=O)NCC(=O)N1CCC[C@H]1C(=O)NCC(=O)NCC(=O)NCC(=O)OCc1ccccc1) [(C18H37)2NCOCH2OCH2CO-GGGPGGG-OCH2Ph]
reduction in chloride efflux on replacing nitrate by sulfate in the aqueous medium ([1]; external SO4 instead of NO3, data not shown): 5 fold | chloride release / efflux from liposomes [1]: rapid, concentration dependent, and went to completion | voltage dependent gating ([2]; 60 μM in cis chamber, 450 mM/150 mM KCl gradient, voltage +20 to -2 mV): voltage dependent gating | reversal potential, Erev ([2]; 450:150 mM KCl ion gradient, calculated chloride Nernst potential 28.2 mV): 28±0.45 mV | maximum conductance (chloride diffusion pathway) ([2]; 450:150 mM KCl ion gradient): 1.3±0.1 nS | maximum conductance (chloride diffusion pathway) ([2]; 450:150 mM KCl ion gradient, listed as (C18H37)2NCOCH2OCH2CO-GGG-P-GGG-OCH2Ph): 1.3±0.01 nS | molecules in the active pore ([3]; at ~100 μM, inferred): two | apparent pore diameter ([3]; size-specific dextran block, ~6–26 Å diameter molecules): 6.6 A | pore size ([4]; molecular models, conductance data and dextran block taken together): 6–8 Å | pore diameter ([4]; suggested by molecular models and bilayer conductance data): 6.5–8 Å | change in cytosolic calcium (RAW 264.7 cells [5]): small increases | cell volume decrease (RAW 264.7 cells [6]; 46 μM added at t=0, normalized to total cell volume at t=0): 20% and 20±0.5% | extent of cell volume decrease, of the initial cell volume (RAW 264.7 cells [6]; 100 μM): 20–25% | effect on cellular volume (RAW 264.7 cells [6]; mammalian cells): modulates cellular volume

(H37C18)2NCOCH2OCH2CO-Gly-Gly-Gly-Leu-Gly-Gly-Gly-OCH2Ph ({(H37C18)2NCOCH2OCH2CO}-GGGLGGG-OBn) [anchor-GGGLGGG]
chloride release / efflux from liposomes [1]: dramatically reduced

(C18H37)2NCOCH2OCH2CO-Gly-Gly-Gly-OCH2Ph [(C18H37)2NCOCH2OCH2CO-GGG-OCH2Ph]
reduction of Cl- release ([1]; compared with the GGGPGGG compound): 6 fold
